Experimental data taken from PubChem BioAssay (NCI).
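1) Cells in 96-well plates. 2) Compound, 48 h, 5 concentrations. 3) Linear interpolation between surrounding doses. 4) Unreached endpoint = highest concentration. TGI denotes the concentration required for complete inhibition of growth.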

Experiments:
Experiment in all cases: NCI tumour cell line growth inhibition, 48 h
OVCAR-8 ovarian = test system: OVCAR-8 ovarian
786-0 renal = test system: 786-0 renal
NCI-H522 lung = test system: NCI-H522 lung
SNB-19 CNS = test system: SNB-19 CNS
UACC-62 melanoma = test system: UACC-62 melanoma
HL-60(TB) leukemia = test system: HL-60(TB) leukemia
NCI-H460 lung = test system: NCI-H460 lung
OVCAR-3 ovarian = test system: OVCAR-3 ovarian
CCRF-CEM leukemia = test system: CCRF-CEM leukemia
KM12 colon = test system: KM12 colon
COLO 205 colon = test system: COLO 205 colon
MOLT-4 leukemia = test system: MOLT-4 leukemia
A549 NSCLC = test system: A549 NSCLC
HCC-2998 colon = test system: HCC-2998 colon
MDA-N = test system: MDA-N
SK-MEL-5 melanoma = test system: SK-MEL-5 melanoma
MALME-3M melanoma = test system: MALME-3M melanoma
SF-539 CNS = test system: SF-539 CNS
IGROV1 ovarian = test system: IGROV1 ovarian
SR leukemia = test system: SR leukemia
EKVX NSCLC = test system: EKVX NSCLC
HT29 colon = test system: HT29 colon
OVCAR-5 ovarian = test system: OVCAR-5 ovarian
SNB-75 CNS = test system: SNB-75 CNS
MDA-MB-435 = test system: MDA-MB-435
A498 renal = test system: A498 renal
UACC-257 melanoma = test system: UACC-257 melanoma
DU-145 prostate = test system: DU-145 prostate
M14 melanoma = test system: M14 melanoma
HOP-62 NSCLC = test system: HOP-62 NSCLC
K-562 leukemia = test system: K-562 leukemia
LOX IMVI melanoma = test system: LOX IMVI melanoma
RPMI-8226 leukemia = test system: RPMI-8226 leukemia
ACHN renal = test system: ACHN renal
CAKI-1 renal = test system: CAKI-1 renal
HCT-116 colon = test system: HCT-116 colon
BT-549 breast = test system: BT-549 breast
PC-3 prostate = test system: PC-3 prostate
HS 578T breast = test system: HS 578T breast
SN12C renal = test system: SN12C renal
T-47D breast = test system: T-47D breast
SK-MEL-2 melanoma = test system: SK-MEL-2 melanoma
SK-MEL-28 melanoma = test system: SK-MEL-28 melanoma
NCI/ADR-RES ovarian = test system: NCI/ADR-RES ovarian
NCI-H226 lung = test system: NCI-H226 lung
SW-620 colon = test system: SW-620 colon
SK-OV-3 ovarian = test system: SK-OV-3 ovarian
HOP-92 NSCLC = test system: HOP-92 NSCLC
HCT-15 colon = test system: HCT-15 colon
MDA-MB-231 breast = test system: MDA-MB-231 breast
MCF7 breast = test system: MCF7 breast
TK-10 renal = test system: TK-10 renal
RXF 393 renal = test system: RXF 393 renal
U251 CNS = test system: U251 CNS
OVCAR-4 ovarian = test system: OVCAR-4 ovarian
UO-31 renal = test system: UO-31 renal
SF-268 CNS = test system: SF-268 CNS
SF-295 CNS = test system: SF-295 CNS
NCI-H23 lung = test system: NCI-H23 lung

Measured: TGI

CSc1ccc(NC(=O)C2CCCCC2C(=O)O)cc1 (centres undefined)
> 100 µM: all assays above
